What was measured:
[1] = system: B-16 mouse melanoma cells [쥐의 멜라노마 세포(B-16 mouse melanoma cell)]; assay: Melanin total amount reduction in B-16 mouse melanoma cells (whitening effect); format: cell-based; conditions: 3 days, n = 3; for melanin production amount: absorbance at 400 nm per 1×10^6 cells
[2] = Anti-glycation effect (L-arginine and glucose); conditions: 70 ℃, 4 h, 420 nm
elastase [엘라스타제] = molecular target: T1, elastase [엘라스타제] (Homo sapiens, UniProt P08246); assay: Elastase activity inhibition; format: biochemical; conditions: pH 7.5, room temperature, n = 3; for enzyme activity: slope of absorbance at 405 nm
T1 construct: 엘라스타제(elastase)는 사람의 백혈구 세포로부터 유래한 것을 사용하였고; from tissue; host or cells: human leukocytes
T1 sequence (P08246 30-267): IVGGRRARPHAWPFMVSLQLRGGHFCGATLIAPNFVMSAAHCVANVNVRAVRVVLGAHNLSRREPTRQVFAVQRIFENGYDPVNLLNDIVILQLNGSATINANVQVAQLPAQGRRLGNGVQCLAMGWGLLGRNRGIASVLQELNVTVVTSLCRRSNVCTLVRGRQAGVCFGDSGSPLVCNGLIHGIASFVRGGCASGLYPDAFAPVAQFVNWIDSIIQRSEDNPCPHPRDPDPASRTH

[3] = system: RAW264.7 cells, nitric oxide (NO) [RAW264.7 세포, 일산화질소(NO)]; assay: NO production inhibition in LPS-stimulated RAW264.7 cells (GRIESS method); format: cell-based; conditions: Mus musculus, LPS 1 ㎍, 24 h, read-out: NO production inhibition rate
[4] = system: human-derived fibroblasts, type I collagen [인간 유래 섬유아세포, 제1형 콜라겐]; assay: Type I collagen synthesis promotion in human-derived fibroblasts (PICP EIA kit); format: cell-based; conditions: 48 h, n = 4
collagenase [콜라게네이즈] = assay: Collagenase activity inhibition; format: biochemical, rat/mouse; conditions: pH 7.5, room temperature, n = 3; for enzyme activity: maximum slope of absorbance at 345 nm; for inhibition rate: collagenase
[5] = Free radical scavenging (DPPH), antioxidant effect; conditions: 37 ℃, 30 min, 520 nm, n = 3

In the case of `OC[C@H]1O[C@@H](Oc2ccc(O)cc2)[C@H](O)[C@@H](O)[C@@H]1O` [알부틴, reference compound], the melanin production amount ([1]; 100 ppm) was 0.228 abs and the inhibition at 100 ppm ([1]; Mus musculus, 72 h, total melanin vs negative control, 100 ppm, read-out: inhibition rate) was 30.9%.

`N=C(N)NN` [Aminoguanidine, reference compound] showed an inhibition rate ([2]; 55 ppm) of 54.89%.

In the case of `O=c1oc2c(O)cc(O)cc2c2oc3cc(O)c(O)cc3c12` [화학식1의 화합물, 2,4,8,9-tetrahydroxy-[1]benzofuro[3,2-c]chromen-6-one], the enzyme activity (elastase [엘라스타제]; 10 ppm) was 3.7, the enzyme activity (elastase [엘라스타제]; 20 ppm) was 3.2 and the inhibition at 10 ppm (elastase [엘라스타제]; elastase, 10 ppm, read-out: inhibition rate) was 64.4%. For the same molecule, the inhibition at 20 ppm (elastase [엘라스타제]; elastase, 20 ppm, read-out: inhibition rate) was 69.1%, the inhibition at 1 ppm ([3]; 1 ppm) was 36.2% and the inhibition at 10 ppm [3] was 43.9%. The inhibition at 100 ppm ([3]; 100 ppm) was 55.2%, the inhibition rate ([2]; 25 ppm) was 44.32% and the inhibition rate ([2]; 50 ppm) was 65.20%. For the same molecule, the “type I collagen production amount” value ([4]; 1 ppm) was 180.3 ng/mL, the “type I collagen production amount” value ([4]; 10 ppm) was 260.1 ng/mL and the activation at 1 ppm ([4]; Homo sapiens, Fibroblast, collagen production vs negative control, 1 ppm, read-out: increase rate) was 20%. The activation at 10 ppm ([4]; Homo sapiens, Fibroblast, collagen production vs negative control, 10 ppm, read-out: increase rate) was 73.2%, the melanin production amount ([1]; 1 ppm) was 0.251 abs and the melanin production amount ([1]; 10 ppm) was 0.232 abs. The inhibition at 1 ppm ([1]; Mus musculus, 72 h, total melanin vs negative control, 1 ppm, read-out: inhibition rate) was 23.9%, the inhibition at 10 ppm ([1]; Mus musculus, 72 h, total melanin vs negative control, 10 ppm, read-out: inhibition rate) was 29.7% and the enzyme activity (collagenase [콜라게네이즈]; 100 ppm) was -2.34. For the same molecule, the enzyme activity (collagenase [콜라게네이즈]; 200 ppm) was -2.61, the inhibition rate (collagenase [콜라게네이즈]; 100 ppm) was 24.57% and the inhibition rate (collagenase [콜라게네이즈]; 200 ppm) was 32.37%.

For `O=C1O[C@H]([C@@H](O)CO)C(O)=C1O` [비타민 C, L-Ascorbic acid, reference compound], the “free radical scavenging rate (IC50)” value [5] was 7.5, the “type I collagen production amount” value ([4]; 50 ppm) was 246.8 ng/mL and the activation at 50 ppm ([4]; Homo sapiens, Fibroblast, collagen production vs negative control, 50 ppm, read-out: increase rate) was 64.3%.

With `CNC(=N)NCCC[C@H](N)C(=O)O` [L-NMMA, L-NG-Monomethylarginine, reference compound] the inhibition at 10 ppm [3] was 41%.
